According to PubChem BioAssay AID2060609 (Molecular Pharmacology Branch, DTP, NCI, 2025):
Where “and” joins values, the source holds several entries; their conditions need not be identical. Identical values can stand only once.

Tested on: 855422-203-R-J1-PDC complex spheroids, viability
Assay: Anticancer human tumor 855422-203-R-J1-PDC patient-derived bladder carcinoma cell line growth inhibition [CLK]
Details: for viability, T/C: stronger effect = lower value
Summary of the method: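 Patient-derived tumor cells grown as complex spheroids with HUVEC endothelial cells and mesenchymal stem cells, treated with drug combinations. Concentrations descend in half-log steps from near clinical Cmax, or from 10 microM if Cmax unknown.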

[1] = curve of first compound, second compound 0.0316 µM
[2] = curve of first compound, second compound 0.1 µM
[3] = curve of first compound, second compound 0.316 µM
[4] = curve of first compound, second compound 1 µM
[5] = curve of first compound, second compound 3.16 µM
[6] = curve of first compound, second compound 10 µM
[7] = second compound 0.0316 µM, first compound 0.0316 µM
[8] = second compound 0.0316 µM, first compound 0.1 µM
[9] = second compound 0.0316 µM, first compound 0.316 µM
[10] = second compound 0.0316 µM, first compound 1 µM
[11] = second compound 0.0316 µM, first compound 3.16 µM
[12] = second compound 0.0316 µM, first compound 10 µM
[13] = second compound 0.1 µM, first compound 0.0316 µM
[14] = second compound 0.1 µM, first compound 0.1 µM
[15] = second compound 0.1 µM, first compound 0.316 µM
[16] = second compound 0.1 µM, first compound 1 µM
[17] = second compound 0.1 µM, first compound 3.16 µM
[18] = second compound 0.1 µM, first compound 10 µM
[19] = second compound 0.316 µM, first compound 0.0316 µM
[20] = second compound 0.316 µM, first compound 0.1 µM
[21] = second compound 0.316 µM, first compound 0.316 µM
[22] = second compound 0.316 µM, first compound 1 µM
[23] = second compound 0.316 µM, first compound 3.16 µM
[24] = second compound 0.316 µM, first compound 10 µM
[25] = second compound 1 µM, first compound 0.0316 µM
[26] = second compound 1 µM, first compound 0.1 µM
[27] = second compound 1 µM, first compound 0.316 µM
[28] = second compound 1 µM, first compound 1 µM
[29] = second compound 1 µM, first compound 3.16 µM
[30] = second compound 1 µM, first compound 10 µM
[31] = second compound 3.16 µM, first compound 0.0316 µM
[32] = second compound 3.16 µM, first compound 0.1 µM
[33] = second compound 3.16 µM, first compound 0.316 µM
[34] = second compound 3.16 µM, first compound 1 µM
[35] = second compound 3.16 µM, first compound 3.16 µM
[36] = second compound 3.16 µM, first compound 10 µM
[37] = second compound 10 µM, first compound 0.0316 µM
[38] = second compound 10 µM, first compound 0.1 µM
[39] = second compound 10 µM, first compound 0.316 µM
[40] = second compound 10 µM, first compound 1 µM
[41] = second compound 10 µM, first compound 3.16 µM
[42] = second compound 10 µM, first compound 10 µM
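Further: spheroids exposed to drugs for seven days before readout.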
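Wherever viability, T/C is given: 100% = DMSO vehicle control wells.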

With COC1C=CCC(C)C(C)S(=O)(=O)NC(=O)c2ccc3c(c2)N(CC2CCC21)CC1(CCCc2cc(Cl)ccc21)CO3 (stereo not drawn) + CNC(=O)c1ccc(Nc2nc(OC3CCCC3)c3c(-c4ccc5nc(C)oc5c4)c[nH]c3n2)c(OC)c1 the IC50 [1] was 7390 nM, the IC50 [2] was over 10000 nM and the IC50 [3] was under 31.6 nM. For the same compound, the IC50 [4] was under 31.6 nM, the IC50 [5] was under 31.6 nM and the IC50 [6] was under 31.6 nM. The viability, T/C [7] was 96%, the viability, T/C [8] was 105% and the viability, T/C [9] was 122%. For the same compound, the viability, T/C [10] was 132%, the viability, T/C [11] was 151% and the viability, T/C [12] was 24.7%. The viability, T/C [13] was 53.6%, the viability, T/C [14] was 63.6% and the viability, T/C [15] was 54.1%. It also gave a viability, T/C [16] of 77.3%, a viability, T/C [17] of 105% and a viability, T/C [18] of 33.3%. For the same compound, the viability, T/C [19] was 20%, the viability, T/C [20] was 23.7% and the viability, T/C [21] was 20.7%. The viability, T/C [22] was 17.2%, the viability, T/C [23] was 34.1% and the viability, T/C [24] was 22%. It also gave a viability, T/C [25] of 19.8%, a viability, T/C [26] of 17.3% and a viability, T/C [27] of 18.2%. For the same compound, the viability, T/C [28] was 19.5%, the viability, T/C [29] was 21.9% and the viability, T/C [30] was 29%. For the same compound, the viability, T/C [31] was 15.8%, the viability, T/C [32] was 18.1% and the viability, T/C [33] was 16.4%. The viability, T/C [34] was 15.1%, the viability, T/C [35] was 20.8% and the viability, T/C [36] was 23.3%. The viability, T/C [37] was 17.7%, the viability, T/C [38] was 18.6% and the viability, T/C [39] was 17.9%. The viability, T/C [40] was 17.4%, the viability, T/C [41] was 17.9% and the viability, T/C [42] was 23.3%.

Cn1ncnc1[C@H]1c2n[nH]c(=O)c3cc(F)cc(c23)N[C@@H]1c1ccc(F)cc1 was tested, and the viability, T/C (compound 0.000316 µM) was 105% and 134%, the viability, T/C (compound 0.001 µM) was 97.5% and 96.9% and the viability, T/C (compound 0.00316 µM) was 110% and 130%. For the same compound, the viability, T/C (compound 0.01 µM) was 113% and 102%, the viability, T/C (compound 0.0316 µM) was 121% and 158% and the viability, T/C (compound 0.1 µM) was 110% and 141%. It also gave an IC50 (curve of compound) of over 100 nM.

In the case of COc1cccc2c1C(=O)c1c(O)c3c(c(O)c1C2=O)CC(O)(C(=O)CO)CC3OC1CC(N)C(O)C(C)O1 (stereo not drawn), the viability, T/C (compound 0.0316 µM) is reported as 15.1% and 13.7%, the viability, T/C (compound 0.1 µM) is reported as 2.91% and 1.62% and the viability, T/C (compound 0.316 µM) is reported as 1.09% and 1.08%. The viability, T/C (compound 1 µM) was 1.18% and 0.23%, the viability, T/C (compound 3.16 µM) was 0.29% and 0.47% and the viability, T/C (compound 10 µM) was 0.19% and 0.46%. For the same compound, the IC50 (curve of compound) was under 31.6 nM.

For C=CC(=O)N1CCN(c2nc(=O)n(-c3c(C)ccnc3C(C)C)c3nc(-c4c(O)cccc4F)c(F)cc23)C(C)C1 (stereo not drawn) + CNC(=O)c1ccc(Nc2nc(OC3CCCC3)c3c(-c4ccc5nc(C)oc5c4)c[nH]c3n2)c(OC)c1, the IC50 [1] was over 10000 nM, the IC50 [2] was under 31.6 nM and the IC50 [3] was under 31.6 nM. The IC50 [4] was under 31.6 nM, the IC50 [5] was under 31.6 nM and the IC50 [6] was under 31.6 nM. The viability, T/C [7] was 78.8%, the viability, T/C [8] was 91.5% and the viability, T/C [9] was 104%. For the same compound, the viability, T/C [10] was 103%, the viability, T/C [11] was 179% and the viability, T/C [12] was 127%. The viability, T/C [13] was 47.5%, the viability, T/C [14] was 50.9% and the viability, T/C [15] was 45.8%. The viability, T/C [16] was 41.6%, the viability, T/C [17] was 43.5% and the viability, T/C [18] was 23.9%. It also gave a viability, T/C [19] of 21.1%, a viability, T/C [20] of 19% and a viability, T/C [21] of 21.8%. For the same compound, the viability, T/C [22] was 27%, the viability, T/C [23] was 22.7% and the viability, T/C [24] was 23.4%. The viability, T/C [25] was 21.2%, the viability, T/C [26] was 17.7% and the viability, T/C [27] was 21%. For the same compound, the viability, T/C [28] was 22.5%, the viability, T/C [29] was 21.5% and the viability, T/C [30] was 19.4%. The viability, T/C [31] was 16.2%, the viability, T/C [32] was 18.3% and the viability, T/C [33] was 18.6%. The viability, T/C [34] was 18.9%, the viability, T/C [35] was 17% and the viability, T/C [36] was 14.1%. The viability, T/C [37] was 19.4%, the viability, T/C [38] was 17.1% and the viability, T/C [39] was 19.5%. It also gave a viability, T/C [40] of 29.2%, a viability, T/C [41] of 17.6% and a viability, T/C [42] of 16.7%.
